Data from patent US20150233925A1, “Assays and Cell-Based Tests Using a Receptor Na/K-ATPase/Src Complex and Uses Thereof” (The University of Toledo, priority 2012, published 2015).
“Also recorded” adds a separate entry of the source. One block for each compound: values may come before it.

Experiments:
[1] = tested on: Src in P11 cells (LLC-PK1 transfected with empty vector); test: Cell-based Src activation assay, control cell P11; parameters: species or system pig
Protocol: (§1) To confirm that these agonists activate Src through the Na/K-ATPase, three complementary cell-based assays were established. One assay uses a LLC-PK1 derived al knockdown PY-17 cell, a control cell P11 (LLC-PK1transfected with empty vector), and another control cell AAC-19 (rat al-rescued PY-17 cells).
(§2) Referring now to FIG. 3A, cells were treated with indicated concentration of ouabain for 5 min, and total cell lysates were analyzed for pY418 and total Src. […] Values are mean±S.E. of at least three independent experiments. * p<0.05 compared with each control.
(§3) Cells were washed with PBS and solubilized in modified ice-cold radioimmune precipitation assay buffer, and subjected to Western blot analysis. Protein signals were detected using an ECL kit and quantified using ImageJ.

[2] = tested on: Src in PY-17 cells (LLC-PK1 derived α1 knockdown); test: Cell-based Src activation assay, α1 knockdown PY-17 cells; parameters: species or system pig; details: Na/K-ATPase knockdown
Protocol: as §1
(§4) The second assay uses another pair of cell lines, LL-A416P-4 and LL-A420P-20. These cells were rat α1 A416P and A420P mutant-rescued PY-17 cells.
as §2, §3

[3] = tested on: Src in LY-F286A-19 cells (F286A mutant Na/K-ATPase); test: Cell-based Src activation assay, LY-F286A-19 cells; details: ouabain 10 min
Protocol: (§5) The third assay uses other two cell lines (LY-I279A-3, LY-F286A-19), where the expressed I279A or F286A mutant Na/K-ATPase was defective in conformational transition (I279A and F286A mutants were defective in E1 to E2 and E2 to E1 conformational transition, respectively). […] Cell (LY-I279A-3 and LY-F286A-19) based Assay for agonist (ouabain): Cells were treated with indicated concentration of ouabain for 10 min, and total cell lysates were analyzed for pY418 and total Src. […] Values are mean±S.E. of at least three independent experiments. * p<0.05 compared with each control.
as §3

[4] = tested on: Src in LL-A416P-4 cells (rat α1 A416P mutant-rescued PY-17 cells); test: Cell-based Src activation assay, LL-A416P-4 cells; details: ouabain 10 min
Protocol: as §4
as §2, with “Cell (LL-A416P-4 and LL-A420P-20) based assay for agonist (ouabain): Cells were” for “Referring now to FIG. 3A, cells were”, “for 10” for “for 5”
as §3

[5] = tested on: Src in LY-I279A-3 cells (I279A mutant Na/K-ATPase); test: Cell-based Src activation assay, LY-I279A-3 cells; details: ouabain 10 min
Protocol: as §5, §3

[6] = tested on: Src in AAC-19 cells (rat α1-rescued PY-17 cells); test: Cell-based Src activation assay, control cell AAC-19
Protocol: as §1, §2, §3

[7] = molecular target: T1, Na/K-ATPase/Src receptor complex (Sus scrofa, UniProt P05024); test: FRET based high throughput screen for agonists and antagonists; format: biochemical, pig; details: screen with ouabain plus compounds, followed by cell-based analyses
T1 construct: The α1 Na/K-ATPase was purified from pig kidney; tissue Upstate Biotechnology (Src only); host or cells: pig kidney (Na/K-ATPase)
Source text: Referring now to FIGS. 2A and 2B, there are shown schematic illustrations of a FRET based high throughput assay for agonist and antagonist. […] A pathway-based approach is useful to screen for agonists of Na/K-ATPase/Src receptor targets. Agonist can interact with Na/K-ATPase resulting Src phosphorylation. This active Src transfers the γ-phosphate of ATP to a single tyrosine residue in the synthetic peptide substrate. Then, a site specific protease recognizes and cleaves non-phosphorylated peptides. […] Cleavage disrupts FRET on the peptide, whereas uncleaved, phosphorylated peptides maintain FRET.
This assay is similar as the agonist screening. For example, in the presence of ouabain, antagonist can reduce ouabain induced peptide substrate phosphorylation.
(§6) In one example, the FRET-based in vitro high throughput assay utilizes the in vitro reconstitution of receptor Na/K-ATPase and Src, and a peptide Src substrate-based FRET assay. […] To reconstitute the receptor α1 Na/K-ATPase/Src complex, purified pig kidney Na/K-ATPase was mixed with purified recombinant Src. This receptor complex has an inhibited Src activity. The binding of agonists to the receptor complex releases the inhibited Src and result in an increase in Src activity, which is measured by a peptide-based FRET analysis (FIG. 2A, FIG. 2B). To screen the agonist of receptor Na/K-ATPase/Src complex, the reconstituted receptor is exposed to compounds, and then measured for Src activation using the peptide-based FRET assay.
The chemical library used for screening in the present study contained 100 structurally diverse, drug-like, naturally occurring organic compounds or their semisynthetic derivatives. Stock compounds were prepared at 10 mM in DMSO. The specific activities of Na/K-ATPase of various kidney preparations were in the range of 900-1,200 μmol/mg/h. The high throughput screen was conducted in a Corning 384-well low-volume assay plates at room temperature.
The first step was Kinase Reaction with the final reaction volume of 10 μl. The purified Src (4.5 U) was incubated with 2 μg of the purified Na/K-ATPase in phosphate-buffered saline (PBS) for 5 min. Afterward, the Na/K-ATPase/Src complex was exposed to compounds to screen for agonist or ouabain 10 μM plus compounds to screen antagonists for 10 min. Then, the Src kinase substrate Tyr 2 peptide or phosphor-peptide (control) was added. The reaction was initiated by addition of 2 mM ATP/Mg^2+, continued for 60 min.
The second step was Development Reaction. Each well was added 5 μl Development Solution, then mix the plate and incubate another 60 min. The assay was stopped by adding 5 μl stop reagent and then fluorescent signals were measured.

[8] = tested on: ouabain-induced signal transduction in cultured cells; test: Ouabain-induced signal transduction in cultured cells; format: cell-based
Protocol: (§7) To assay for receptor antagonist, the reconstituted receptor was exposed to compounds in the presence and absence of an agonist (ouabain) and then assessed whether the compounds could antagonize ouabain-induced activation of Src. To verify that they are specific antagonists of receptor Na/K-ATPase/Src complex, their effects on ouabain-, EGF- and dopamine-induced signal transduction was measured in LLC-PK1 and PY-17 cells.

ERK in LLC-PK1 cells = test: Western blot of activated-ERK in LLC-PK1 cells; format: cell-based, pig; details: pretreated 30 min, ouabain 1 nM for 1 h
Protocol: LLC-PK1 cells were serum-starved overnight, washed and pretreated with Ferulic acid (A) for 30 min. Both control and compounds-pretreated cells were exposed to ouabain (1 nM) for 1 h. Cell lysates were collected, separated by SDS-PAGE and probed for activated-ERK and total-ERK. A representative western blot is shown. The quantitative data from three to four separate experiments were presented. (***, p<0.001 vs control; #, p<0.05 vs Oua).
The experiments were done as in FIG. 6D. The quantitative data from four separate experiments were presented. (***, p<0.001 vs control; ## #, p<0.001 vs Oua).
as §3

[9] = molecular target: T1, Na/K-ATPase/Src receptor complex; test: Reconstituted Na/K-ATPase/Src receptor complex, Src pY418 by Western blot (kinase activity assay of Src); format: biochemical, pig; details: ouabain 1 μM, 100 μM vanade to inactivate ATPase activity
Protocol: as §6
Phosphorylation of Src pY 418, as an indicator of Src activation, was measured by Western blot. Ouabain was used at 1 μM and the assay was done in the presence of 100 μM vanade to inactivate ATPase activity. Values are mean±S.E. of at least three independent experiments. * p<0.05 compared with control. ** p<0.01 compared with control.
as §7
To determine whether the compound affect the Na/K-ATPase/Src receptor activity, the compounds was incubated with the purified Src (4.5 U) and 1 μg Na/K-ATPase for 15 min at 37° C. Afterward, 2 mM ATP/Mg^2+ was added. The reaction continued for 15 min at 37° C. and was stopped by addition of SDS sample buffer. Afterward, the Src pY418 was measured by anti-pY418 antibody to indicate Src activation.

ERKs in LLC-PK1 cells = test: Immunostaining assay for active ERK in LLC-PK1 cells; format: cell-based, pig; details: pretreated cells exposed to 1 nM ouabain for 60 min
Protocol: as §7
LLC-PK1 cells were pretreated with different concentrations of MB5 for 15 min, exposed to 1 nM ouabain for 60 min, and assayed for active ERKs. A representative set of images is shown. LLC-PK1 cells were pretreated with different concentrations of MB5 for 15 min, exposed to stimuli for either 10 or 3 min, and assayed for active ERKs. A representative set of images is shown.
The data presented in FIGS. 6C-6E show blocking ouabain-induced ERK activation by other antagonists of receptor Na/K-ATPase/Src complex. […] Both control and Tanshinone I-pretreated cells were exposed to ouabain (1 nM) for 1 hour, and processed for immuno-staining of active ERK as in FIG. 6A. A representative set of images are presented from three separate experiments.
LLC-PK1 cells grown on coverslip were serum-starved and treated with MB5 or stimuli for indicated time. […] The signals were detected by a Leica (Wetzlar, Germany) confocal microscope. […]

DU145 tumor xenograft = test: DU145 xenograft tumors in NOD/SCID mice; format: in vivo; details: 20 mg/kg i.p. every day for 3 weeks
Protocol: FIGS. 8A-8C show the MB5 effect on the growth of DU145 tumor xenografts in NOD/SCID mice Viable DU145 cells (5×10^6) were injected to the flank of NOD/SCID mice. After tumor reached 100 mm^3, mice were injected via i.p. with DMSO or MB5 at a dose of 20 mg/Kg. Values are mean±S.E. ** p<0.01 compared with each control.
Animal protocols were approved by the Institutional Animal Care and Use Committee at the University of Toledo Health Science Campus. Tumor xenografts were established by subcutaneous injection of 5×10^6 DU145 cells into two flanks of 6-week-old female NOD/SCID mice (Charles River). When the tumors reached an average volume of 100 mm^3, mice were injected intraperitoneally with DMSO or MB5 (at doses of 20 mg/kg body weight) every day for 3 weeks.

Src in LLC-PK1 cells = test: Cell-based Src activation assay, LLC-PK1 cells; parameters: species or system pig; details: 20 μM OA
Protocol: as §4
The pig kidney epithelia cells (LLC-PK1 cells) were obtained from ATCC and maintained in Dulbecco's modified Eagle's medium (DMEM) in the presence of 10% FBS, 100 units/ml penicillin, and 100 μg/ml streptomycin in a 5% CO2 humidified incubator. To eliminate the confounding effect of growth factors in the serum, cells were serum starved over night before experiments.
as §2, §3

Compound: C[C@@H]1O[C@@H](O[C@H]2C[C@@H](O)[C@]3(CO)[C@H]4[C@H](O)C[C@]5(C)[C@@H](C6=CC(=O)OC6)CC[C@]5(O)[C@@H]4CC[C@]3(O)C2)[C@H](O)[C@H](O)[C@H]1O [ouabain]
Src activation (pY418 / total Src) [1]: activate Src
Src activation (pY418 / total Src) [2]: abolished their effects
Src activation (pY418 / total Src) [3]: could no longer activate Src
Src activation (pY418 / total Src) [4]: activated Src
Src activation (pY418 / total Src) [5]: could no longer activate Src
Src activation (pY418 / total Src) [6]: activate Src

identification as antagonist of receptor Na/K-ATPase/Src complex (ouabain antagonist) [7]: receptor antagonists
Compound: COc1cc(/C=C/C(=O)CC(=O)/C=C/c2ccc(O)c(OC)c2)ccc1O [curcumin]

Compound: O=C(O)[C@H](O)Cc1ccc(O)c(O)c1 [danshensu]
identification as antagonist of receptor Na/K-ATPase/Src complex (ouabain antagonist) [7]: identified
identification as antagonist of receptor Na/K-ATPase/Src complex (ouabain antagonist) ([7]; listed as Tanshensu): receptor antagonists

Compound: O=c1c2ccc(O)c(O)c2oc2c(O)c(O)ccc12 [MB7, 3,4,5,6-tetrahydroxyxanthone]
effect on ouabain-induced signal transduction [8]: antagonize

Compound: COc1cc(/C=C/C(=O)O)ccc1O [ferulic acid]
effect on ouabain-induced ERK activation (ERK in LLC-PK1 cells): inhibitory effects
identification as antagonist of receptor Na/K-ATPase/Src complex (ouabain antagonist) [7]: identified; also recorded: receptor antagonists

Compound: CC(C)(O)[C@@H]1CC[C@](C)([C@H]2[C@@H](O)C[C@@]3(C)[C@@H]4C[C@H](O[C@@H]5O[C@H](CO)[C@@H](O)[C@H](O)[C@H]5O)[C@H]5C(C)(C)[C@@H](O[C@@H]6OC[C@@H](O)[C@H](O)[C@H]6O)CC[C@@]56C[C@@]46CC[C@]23C)O1 [astragaloside IV]
effect on ouabain-induced ERK activation (ERK in LLC-PK1 cells): inhibitory effects
identification as antagonist of receptor Na/K-ATPase/Src complex (ouabain antagonist) [7]: identified; also recorded: receptor antagonists

effect on ouabain-induced Src activation (Src pY418) [9]: antagonizing effects
identification as antagonist of receptor Na/K-ATPase/Src complex (ouabain antagonist) [7]: identified
Compound: Cc1coc2c1C(=O)C(=O)c1c-2ccc2c1CCCC2(C)C [tanshinone IIA]

effect on ouabain-induced Src activation (Src pY418) [9]: antagonizing effects
identification as antagonist of receptor Na/K-ATPase/Src complex (ouabain antagonist) ([7]; listed as MB-5): receptor antagonists
Compound: O=c1c2cccc(O)c2oc2c(O)c(O)ccc12 [MB5, 3,4,5-trihydroxyxanthone]
effect on ouabain-induced activation of ERKs (ERKs in LLC-PK1 cells): blocked
identification as antagonist of receptor Na/K-ATPase/Src complex (ouabain antagonist) [7]: positively identified as ouabain antagonists
growth of DU145 tumor xenograft (DU145 tumor xenograft): inhibited the growth
effect on ouabain-induced signal transduction [8]: antagonize

Compound: Cc1coc2c1C(=O)C(=O)c1c-2ccc2c(C)cccc12 [tanshinone I]
effect on ouabain-induced Src activation (Src pY418) [9]: antagonizing effects
effect on ouabain-induced ERK activation (ERK in LLC-PK1 cells): inhibitory effects
effect on ouabain-induced activation of ERKs (ERKs in LLC-PK1 cells): inhibition
identification as antagonist of receptor Na/K-ATPase/Src complex (ouabain antagonist) [7]: identified

Compound: CCCCCCCC/C=C\CCCCCCCC(=O)O [oleic acid]
Src activation (pY418 / total Src) (Src in LLC-PK1 cells): activated Src
